Molecular target: Neuronal acetylcholine receptor subunit alpha-7 (Rattus norvegicus) (UniProt Q05941)
Assay: Selectivity for rat alpha7 nAChR over human alpha3 nAChR

In the case of `Cl.O=C(CCCCN1CCOCC1)Nc1ccc(-c2cccnc2)cc1`, the Selectivity ratio is reported as 5.3.

From ChEMBL document CHEMBL1155247, “SAR and biological evaluation of SEN12333/WAY-317538: Novel alpha 7 nicotinic acetylcholine receptor agonist” (Bioorg Med Chem, 2009)
